Results published in patent US8580784B2, “Method for treating a disease related to the glucocorticoid receptor” (Santen Pharmaceutical Co., Ltd., priority 2006, dated 2013).

Biological target: T1, Recombinant human GR (Homo sapiens, UniProt P04150)
T1 construct: purchased Invitrogen P2816
T1 sequence (P04150 1-777): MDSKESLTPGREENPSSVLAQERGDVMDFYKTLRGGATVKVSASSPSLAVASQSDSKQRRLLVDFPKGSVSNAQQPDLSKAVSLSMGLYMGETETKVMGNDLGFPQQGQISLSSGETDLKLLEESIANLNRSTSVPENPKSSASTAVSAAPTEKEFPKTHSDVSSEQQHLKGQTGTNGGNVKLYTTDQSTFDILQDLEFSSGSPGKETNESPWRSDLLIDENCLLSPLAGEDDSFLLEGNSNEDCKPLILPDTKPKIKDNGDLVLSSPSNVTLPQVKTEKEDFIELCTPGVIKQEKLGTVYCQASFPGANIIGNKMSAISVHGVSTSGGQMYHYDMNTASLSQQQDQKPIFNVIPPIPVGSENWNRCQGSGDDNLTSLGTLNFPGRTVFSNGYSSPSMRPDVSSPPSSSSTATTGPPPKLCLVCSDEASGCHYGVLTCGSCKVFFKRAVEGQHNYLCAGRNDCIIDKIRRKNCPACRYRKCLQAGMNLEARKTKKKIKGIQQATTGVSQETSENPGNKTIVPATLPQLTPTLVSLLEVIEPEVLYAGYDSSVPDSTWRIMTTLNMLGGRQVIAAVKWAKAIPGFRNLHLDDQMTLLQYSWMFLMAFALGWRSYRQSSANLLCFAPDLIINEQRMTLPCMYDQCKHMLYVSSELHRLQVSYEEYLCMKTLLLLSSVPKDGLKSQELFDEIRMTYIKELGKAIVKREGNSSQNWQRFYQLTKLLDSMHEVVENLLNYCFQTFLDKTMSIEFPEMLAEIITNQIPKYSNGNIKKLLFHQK
Assay: Evaluation test for binding activity to glucocorticoid receptor: receptor competitor assay by fluorescence polarization (Invitrogen GR competitor assay kit, cat No. P2816)
Details: 20 μM test compound solution, 10 μL per well plus 5 μL 4×GS1 and 5 μL 4×GR solution; room temperature 2 to 4 hours; a ratio of 100% or more is indicated by 100%
Procedure: A detailed explanation of this matter will be described in the section of “Pharmacological Test” in Examples described below. In order to find the usefulness of the present compound as a pharmaceutical, a glucocorticoid receptor competitor assay was carried out by a fluorescence polarization method by using a glucocorticoid receptor competitor assay kit (manufactured by Invitrogen, cat No. P2816) to study the glucocorticoid receptor binding activity of the present compound.
1. Evaluation Test for Binding Activity to Glucocorticoid Receptor (hereinafter referred to as “GR”)
In order to evaluate a binding activity to GR, a receptor competitor assay was carried out by a fluorescence polarization method. In the assay, a GR competitor assay kit (manufactured by Invitrogen, cat No. P2816) was used, and a procedure was carried out according to the protocol attached to the kit. Hereinafter, the specific method will be described.
(Preparation of Reagents)
GR screening buffer: A buffer containing 10 mM potassium phosphate (pH 7.4), 20 mM sodium molybdate (Na2MoO4), 0.1 mM ethylene diamine tetraacetic acid (EDTA), 5 mM dithiothreitol (DTT), 0.1 mM stabilizing peptide and 2% dimethylsulfoxide was prepared.
4×GS1 solution: Fluormone™ GS1, which is a fluorescent glucocorticoid ligand, was diluted with GR screening buffer, whereby a 4 nM solution was prepared.
4×GR solution: Recombinant human GR was diluted with GR screening buffer, whereby a 16 nM solution was prepared.
(Preparation of Test Compound Solution)
After a test compound was dissolved in dimethylsulfoxide, the resulting solution was diluted with GR screening buffer, whereby a 20 μM test compound solution was prepared.
(Test Method and Measurement Method)
1) The test compound solution was added in an amount of 10 μL into each well of a 384-well plate, and then, 4×GS1 solution and 4×GR solution were added in an amount of 5 μL into each well, respectively.
2) The plate was incubated in a dark place at room temperature for 2 to 4 hours.
3) By using a multimode plate reader, Analyst™ HT (manufactured by LJL Biosystems), fluorescence polarization of each well was measured. As the blank, a well containing GR screening buffer in place of the test compound and 4×GS1 solution was used.
4) The same procedure as that in the above 1) to 3) was carried out except that GR screening buffer was used in place of the test compound solution, and the obtained result was taken as the negative control.
5) The same procedure as that in the above 1) to 3) was carried out except that 2 mM dexamethasone was used in place of the test compound solution, and the obtained result was taken as the positive control.
(Calculation Equation of GR Binding Ratio)
A GR binding ratio (%) was calculated from the following equation. GR binding ratio(%)=100×[1−(fluorescence polarization of test compound solution−fluorescence polarization of positive control solution)/(fluorescence polarization of negative control solution−fluorescence polarization of positive control solution)] (Test Results and Discussion)

Compound	inhibition at 20 µM (stock) [%]	inhibition at 20 µM [%]
COc1ccccc1NCc1c(-c2ccc(OC(=O)c3ccco3)cc2OC)ccc2c1C(C)=CC(C)(C)N2 [Compound 1-1, 6-[4-(Furan-2-ylcarbonyloxy)-2-methoxyphenyl]-5-(2-methoxyphenylaminomethyl)-2,2,4-trimethyl-1,2-dihydroquioline]	92	
COc1ccccc1NCc1c(-c2ccc(OC(=O)c3cccnc3C)cc2OC)ccc2c1C(C)=CC(C)(C)N2 [Compound 1-2, 6-[2-Methoxy-4-(2-methylpyridin-3-ylcarbonyloxy)phenyl]-5-(2-methoxyphenylaminomethyl)-2,2,4-trimethyl-1,2-dihydroquioline]	100	
COc1ccccc1NCc1c(-c2ccc(OC(=O)c3ccccc3)cc2OC)ccc2c1C(C)=CC(C)(C)N2 [Compound 1-3, 6-(4-Benzoyloxy-2-methoxyphenyl)-5-(2-methoxyphenylaminomethyl)-2,2,4-trimethyl-1,2-dihydroquioline]	95	
COc1ccccc1NCc1c(-c2ccc(OC(=O)c3ccccc3OC)cc2OC)ccc2c1C(C)=CC(C)(C)N2 [Compound 1-4, 6-[2-Methoxy-4-(2-methoxybenzoyloxy)phenyl]-5-(2-methoxyphenylaminomethyl)-2,2,4-trimethyl-1,2-dihydroquinoline]	95	
COc1ccccc1NCc1c(-c2ccc(OC(=O)c3ccccc3C)cc2OC)ccc2c1C(C)=CC(C)(C)N2 [Compound 1-5, 6-[2-Methoxy-4-(2-methylbenzoyloxy)phenyl]-5-(2-methoxyphenylaminomethyl)-2,2,4-trimethyl-1,2-dihydroquinoline]	93	
COc1ccccc1NCc1c(-c2ccc(OC(=O)c3ccoc3)cc2OC)ccc2c1C(C)=CC(C)(C)N2 [Compound 1-6, 6-[4-(Furan-3-ylcarbonyloxy)-2-methoxyphenyl]-5-(2-methoxyphenylaminomethyl)-2,2,4-trimethyl-1,2-dihydroquinoline]	97	
COc1ccccc1NCc1c(-c2ccc(OC(=O)c3ccsc3)cc2OC)ccc2c1C(C)=CC(C)(C)N2 [Compound 1-7, 5-(2-Methoxyphenylaminomethyl)-6-[2-methoxy-4-(thiophen-3-ylcarbonyloxy)phenyl]-2,2,4-trimethyl-1,2-dihydroquinoline]	95	
COc1ccccc1NCc1c(-c2ccc(OC(=O)c3cccnc3)cc2OC)ccc2c1C(C)=CC(C)(C)N2 [Compound 1-8, 5-(2-Methoxyphenylaminomethyl)-6-[2-methoxy-4-(pyridin-3-ylcarbonyloxy)phenyl]-2,2,4-trimethyl-1,2-dihydroquinoline]		98
COc1cc(OC(=O)c2ccccc2Cl)ccc1-c1ccc2c(c1CNc1cc(F)ccc1C)C(C)=CC(C)(C)N2 [Compound 1-9, 6-[4-(2-Chlorobenzoyloxy)-2-methoxyphenyl]-5-(5-fluoro-2-methylphenylaminomethyl)-2,2,4-trimethyl-1,2-dihydroquinoline]	90	
COc1ccccc1NCc1c(-c2ccc(OC(=O)c3ccccc3Cl)cc2OC)ccc2c1C(C)=CC(C)(C)N2 [Compound 1-10, 6-[4-(2-Chlorobenzoyloxy)-2-methoxyphenyl]-5-(2-methoxyphenylaminomethyl)-2,2,4-trimethyl-1,2-dihydroquinoline]	93	
COc1ccccc1NCc1c(-c2ccc(OC(=O)c3ccccc3F)cc2OC)ccc2c1C(C)=CC(C)(C)N2 [Compound 1-12, 6-[4-(2-Fluorobenzoyloxy)-2-methoxyphenyl]-5-(2-methoxyphenylaminomethyl)-2,2,4-trimethyl-1,2-dihydroquinoline]	99	
COc1ccccc1NCc1c(-c2ccc(OC(=O)c3ccncc3)cc2OC)ccc2c1C(C)=CC(C)(C)N2 [Compound 1-13, 5-(2-Methoxyphenylaminomethyl)-6-[2-methoxy-4-(pyridin-4-ylcarbonyloxy)phenyl]-2,2,4-trimethyl-1,2-dihydroquinoline]	100	
COc1ccccc1NCc1c(-c2ccc(OC(=O)C(C)C)cc2OC)ccc2c1C(C)=CC(C)(C)N2 [Compound 1-14, 6-(4-Isopropylcarbonyloxy-2-methoxyphenyl)-5-(2-methoxyphenylaminomethyl)-2,2,4-trimethyl-1,2-dihydroquinoline]	99	
COc1ccccc1NCc1c(-c2ccc(OC(=O)c3cccs3)cc2OC)ccc2c1C(C)=CC(C)(C)N2 [Compound 1-15, 5-(2-Methoxyphenylaminomethyl)-6-[2-methoxy-4-(thiophen-2-ylcarbonyloxy)phenyl]-2,2,4-trimethyl-1,2-dihydroquinoline]	99	
COc1cc(OC(=O)c2cccnc2)ccc1-c1ccc2c(c1CNc1cc(F)ccc1C)C(C)=CC(C)(C)N2 [Compound 1-16, 5-(5-Fluoro-2-methylphenylaminomethyl)-6-[2-methoxy-4-(pyridin-3-ylcarbonyloxy)phenyl]-2,2,4-trimethyl-1,2-dihydroquinoline]	100	
COc1cc(OC(=O)c2ccco2)ccc1-c1ccc2c(c1CNc1cc(F)ccc1C)C(C)=CC(C)(C)N2 [Compound 1-17, 5-(5-Fluoro-2-methylphenylaminomethyl)-6-[4-(furan-2-ylcarbonyloxy)-2-methoxyphenyl]-2,2,4-trimethyl-1,2-dihydroquinoline]	99	
COC(=O)c1cccc(C(=O)Oc2ccc(-c3ccc4c(c3CNc3ccccc3OC)C(C)=CC(C)(C)N4)c(OC)c2)c1 [Compound 1-18, 6-[2-Methoxy-4-(3-methoxycarbonylbenzoyloxy)phenyl]-5-(2-methoxyphenylaminomethyl)-2,2,4-trimethyl-1,2-dihydroquinoline]	86	
COc1ccc(C(=O)Oc2ccc(-c3ccc4c(c3CNc3ccccc3OC)C(C)=CC(C)(C)N4)c(OC)c2)cc1 [Compound 1-22, 6-[2-Methoxy-4-(4-methoxybenzoyloxy)phenyl]-5-(2-methoxyphenylaminomethyl)-2,2,4-trimethyl-1,2-dihydroquinoline]	81	
COc1ccccc1NCc1c(-c2ccc(OC(=O)c3ccc(F)cc3)cc2OC)ccc2c1C(C)=CC(C)(C)N2 [Compound 1-23, 6-[4-(4-Fluorobenzoyloxy)-2-methoxyphenyl]-5-(2-methoxyphenylaminomethyl)-2,2,4-trimethyl-1,2-dihydroquinoline]	86	
COc1ccccc1NCc1c(-c2ccc(OC(=O)c3ccccc3SC)cc2OC)ccc2c1C(C)=CC(C)(C)N2 [Compound 1-26, 6-[2-Methoxy-4-(2-methylthiobenzoyloxy)phenyl]-5-(2-methoxyphenylaminomethyl)-2,2,4-trimethyl-1,2-dihydroquinoline]	90	
COc1ccccc1NCc1c(-c2ccc(OC(=O)c3cccc(C(C)=O)c3)cc2OC)ccc2c1C(C)=CC(C)(C)N2 [Compound 1-27, 6-[4-(3-Acetylbenzoyloxy)-2-methoxyphenyl]-5-(2-methoxyphenylaminomethyl)-2,2,4-trimethyl-1,2-dihydroquinoline]	87	
